Our source for the IC50 and viability, T/C values is PubChem BioAssay AID2060496 (Molecular Pharmacology Branch, DTP, NCI, 2025).

“And” between values parts separate entries of the source, which are not always exact repeats. Equal values may be shown once. Some results are limits rather than exact numbers.

The assay has as its system 276233-004-R-J1-PDC complex spheroid viability. As to the kind of experiment: Anticancer human tumor 276233-004-R-J1-PDC patient-derived colon adenocarcinoma cell line growth inhibition [GQUAD]. The following applies: for viability, T/C: stronger effect = lower value. The text has this:
DNA G-quadruplex Stabilizer Agents in Combinations in Complex Spheroids
A high-throughput screen of multi-cell type tumor spheroids was designed to identify active combinations of DNA G-quadruplex stabilizer agents and targeted small molecules. Complex spheroids include a stromal component modeled by human endothelial cells (HUVEC) and fibroblasts modeled by human mesenchymal stem cells (MSCs). The concentration ranges selected for each drug and investigational agent were based upon clinically achievable concentrations if the clinical Cmax of the agent was known.
Compounds. The drugs and investigational agents: pidnarulex (CX-5461; NSC782164), APTO-253 (NSC789042), BRACO-19 (NSC847499), peposertib (NSC802822), ceralasertib (NSC780249), elimusertib (NSC800525), camonsertib (NSC841442), AZD-1390 (NSC803789), olaparib (NSC753686), talazoparib (NSC767125), ART-558 (NSC835418), sotorasib (NSC818433), MRTX-1133 (NSC836407), SN-38 (NSC673596), topotecan (NSC609699), etoposide (NSC141540), doxorubicin (NSC123127), gemcitabine (NSC613327), 5-fluorouracil (NSC19893), paclitaxel (NSC125973), vemurafenib (NSC761431), panobinostat (NSC761190), R-306465 (JNJ-16241199; NSC773264), adavosertib (NSC754352), TP-3654 (NSC805149), carboplatin (NSC241240), KSQ-4279 (NSC840948), and staurosporine (NSC755774) were obtained from the National Cancer Institute (NCI) Developmental Therapeutics Program Chemical Repository (34). The FDA-approved anticancer drug set is available from the NCI Developmental Therapeutics Program. […] The stock solutions were prepared in dimethyl sulfoxide (DMSO, Sigma-Aldrich, St. Louis, MO, cat. D2650) at 800-fold the tested concentration and stored at -70 degrees C prior to their use. All drugs and investigational agents were tested over a range starting from a high concentration at or near the clinical Cmax and decreasing in half-log increments. If the clinical Cmax for an agent had not been determined, the highest concentration tested was 10 microM.
2.3 Cell Culture. All cells were maintained in an incubator at 37 degrees C and 5% CO2 with 95% humidity. The PDC lines were cultured according to standard operating procedures established by the NCI PDMR. All PDCs were thawed and cultured in Matrigel-coated flasks prepared with a working solution of 1X Ham's F-12 nutrient mix, without supplementation (Invitrogen, cat. 11765054), 100 U/mL penicillin-streptomycin (Invitrogen, cat. 15140122), and 2.5% Matrigel (Corning Inc., cat. 354248) for the first three passages. The 857933-349-R-J2-PDC line was cultured in 6C/Colon 1B media, which includes advanced DMEM/F-12 (Thermo Fisher Scientific, cat. 12634028), 10 mM HEPES (Thermo Fisher Scientific, cat. 15630080), 1X GlutaMAX supplement (Thermo Fisher Scientific, cat. 35050061), 0.1 mg/mL primocin (InvivoGen, cat. ant-pm-2), 10% defined fetal bovine serum, heat inactivated (HyClone Laboratories Inc., cat. SH30070.03HI), 50% L-WRN conditioned media (ATCC, cat. CRL-3276), 1.25 mM N-Acetyl-L-cysteine (Sigma-Aldrich, cat. A9165), 10 mM nicotinamide (Sigma-Aldrich, cat. N0636), 1X B-27 supplement (Thermo Fisher Scientific, cat. 17504044), 1X N-2 supplement (Thermo Fisher Scientific, cat. 17502048), 10 microM Y-27632 dihydrochloride (Tocris Bioscience, cat. 1254), and 50 ng/mL human EGF recombinant protein (Thermo Fisher Scientific, cat. PHG0311). The 485176-168-R4-J1-PDC line was cultured in Panc media, which includes all 6C/Colon 1B media components plus 100 ng/mL human FGF-10 (Thermo Fisher Scientific, cat. 100-26), 500 nM SB-431542 (Selleckchem, cat. S1067), and gastrin (Tocris, cat. 3006).
[…]
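Also: spheroids exposed to drugs for seven days.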

As a reminder, the IC50 is the concentration that inhibits the measured activity by half. The viability, T/C is the ratio of treated to control. Regarding `CC(C)n1c(=O)n(C)c2cnc3cc(F)c(-c4ccc(OCCCN5CCCCC5)nc4)cc3c21` + CN(C)c1ccc(Nc2c3ccc(NC(=O)CCN4CCCC4)cc3nc3cc(NC(=O)CCN4CCCC4)ccc23)cc1, the IC50 by setting is: (curve of first compound, second compound 0.0316 µM) > 10 µM; (curve of first compound, second compound 0.1 µM) > 10 µM; (curve of first compound, second compound 0.316 µM) 8.48 µM; (curve of first compound, second compound 1 µM) > 10 µM; (curve of first compound, second compound 3.16 µM) > 10 µM; (curve of first compound, second compound 10 µM) < 0.0316 µM. Further, the viability, T/C by setting is: (second compound 0.0316 µM, first compound 0.0316 µM) 95.3%; (second compound 0.0316 µM, first compound 0.1 µM) 103%; (second compound 0.0316 µM, first compound 0.316 µM) 99.6%; (second compound 0.0316 µM, first compound 1 µM) 92.9%; (second compound 0.0316 µM, first compound 3.16 µM) 69.2%; (second compound 0.0316 µM, first compound 10 µM) 53.1%. In addition, the viability, T/C reads like this: (second compound 0.1 µM, first compound 0.0316 µM) 91.4%; (second compound 0.1 µM, first compound 0.1 µM) 99.2%; (second compound 0.1 µM, first compound 0.316 µM) 100%; (second compound 0.1 µM, first compound 1 µM) 89.2%; (second compound 0.1 µM, first compound 3.16 µM) 60.1%; (second compound 0.1 µM, first compound 10 µM) 55.5%. The viability, T/C is 86.7% (second compound 0.316 µM, first compound 0.0316 µM); 84.3% (second compound 0.316 µM, first compound 0.1 µM); 75.7% (second compound 0.316 µM, first compound 0.316 µM); 86.1% (second compound 0.316 µM, first compound 1 µM); 68.7% (second compound 0.316 µM, first compound 3.16 µM); 46.9% (second compound 0.316 µM, first compound 10 µM). Moreover, the viability, T/C runs as follows: (second compound 1 µM, first compound 0.0316 µM) 61.7%; (second compound 1 µM, first compound 0.1 µM) 57.4%; (second compound 1 µM, first compound 0.316 µM) 62.1%; (second compound 1 µM, first compound 1 µM) 72.7%; (second compound 1 µM, first compound 3.16 µM) 72.7%; (second compound 1 µM, first compound 10 µM) 64.8%. Also, the viability, T/C reads like this: (second compound 3.16 µM, first compound 0.0316 µM) 55.9%; (second compound 3.16 µM, first compound 0.1 µM) 53.6%; (second compound 3.16 µM, first compound 0.316 µM) 82.4%; (second compound 3.16 µM, first compound 1 µM) 90.1%; (second compound 3.16 µM, first compound 3.16 µM) 81.3%; (second compound 3.16 µM, first compound 10 µM) 36.6%. In addition, the viability, T/C was 46.4% (second compound 10 µM, first compound 0.0316 µM); 54% (second compound 10 µM, first compound 0.1 µM); 63.4% (second compound 10 µM, first compound 0.316 µM); 83.1% (second compound 10 µM, first compound 1 µM); 107% (second compound 10 µM, first compound 3.16 µM); 26.4% (second compound 10 µM, first compound 10 µM).

On to `Nc1ccn(C2OC(CO)C(O)C2(F)F)c(=O)n1` (stereo unspecified), for which the viability, T/C (compound 0.0316 µM) is 86.2% and 88.9% and 100%; the viability, T/C (compound 0.1 µM) is 76.2% and 97% and 92.5%; the viability, T/C (compound 0.316 µM) is 76.6% and 97.1% and 85.7%; the viability, T/C (compound 1 µM) is 69% and 83.3% and 72.7%; the viability, T/C (compound 3.16 µM) is 83.3% and 79% and 97.7%; the viability, T/C (compound 10 µM) is 71.6% and 68.4% and 75.5%. Further, the IC50 (curve of compound) was > 10 µM.

As for `O=C(c1cc(Cc2n[nH]c(=O)c3ccccc23)ccc1F)N1CCN(C(=O)C2CC2)CC1`, the viability, T/C (compound 0.0316 µM) is 98.7% and 82% and 96.7%; the viability, T/C (compound 0.1 µM) was 74.7% and 85.1% and 87.7%; the viability, T/C (compound 0.316 µM) was 99.8% and 90.6% and 79%; the viability, T/C (compound 1 µM) is 93.7% and 103% and 84.8%; the viability, T/C (compound 3.16 µM) was 82.7% and 91.9% and 88%; the viability, T/C (compound 10 µM) was 94.1% and 79.9% and 97.9%. In addition, where the note is “curve of compound”, the IC50 was > 10 µM.
